Data on 17 molecules can be found in ChEMBL document CHEMBL5107956, “Natural products from mangrove sediments-derived microbes: Structural diversity, bioactivities, biosynthesis, and total synthesis” (Eur J Med Chem, 2022).

Molecules are shown by their SMILES. Converted amounts (≈) assume the structure as drawn.

The test system of experiment [1] is ACHN. Briefly: Antiproliferative activity against human ACHN cells assessed as cell growth inhibition measured after 72 hrs by CCK-8 assay. The class given is functional, cell-based.
Experiment [2] relates to HL-60. Briefly: Antiproliferative activity against human HL-60 cells assessed as cell growth inhibition measured after 72 hrs by CCK-8 assay. The class given is functional, cell-based. The note with it: HL-60, 72 h.
Experiment [3] deals with K562. Briefly: Antiproliferative activity against human K562 cells assessed as cell growth inhibition measured after 72 hrs by CCK-8 assay. It counts as functional, cell-based. The note with it: K562, 72 h.
Experiment [4] has as its system A549. Nature of the experiment: Antiproliferative activity against human A549 cells assessed as cell growth inhibition by MTT assay. The class given is functional, cell-based.
Experiment [5] relates to Bel-7402. Briefly: Cytotoxicity against human Bel-7402 cells assessed as cell growth inhibition by MTT assay. It counts as functional, cell-based.
Experiment [6] deals with HCT-8. Nature of the experiment: Cytotoxicity against human HCT-8 cells assessed as cell growth inhibition by MTT assay. It counts as functional, cell-based.
Experiment [7] deals with A2780. Briefly: Cytotoxicity against human A2780 cells assessed as cell growth inhibition by MTT assay. It counts as functional, cell-based.
In experiment [8] the target is 20S proteasome. Nature of the experiment: Inhibition of 20S proteasome (unknown origin) by fluorescence based assay. The class given is protein-complex assay, Homo sapiens.
In experiment [9] the test system is ACHN. Nature of the experiment: Antiproliferative activity against human ACHN cells assessed as cell growth inhibition. It counts as functional, cell-based.
Experiment [10] concerns the target Phosphotyrosine-protein phosphatase PTPB (Mycobacterium tuberculosis, UniProt P96830). Briefly: Inhibition of N-terminal His6-tagged Mycobacterium tuberculosis H37Rv PTPB using 6,8-difluoromethylumbelliferyl phosphate as substrate incubated for 30 mins by fluorescence based analysis.
Experiment [11] has as its system RAW264.7. Briefly: Antiinflammatory activity against LPS-induced mouse RAW264.7 cells assessed as inhibition of NO production measured after 24 hrs […]. The class given is functional, cell-based. The note with it: RAW264.7, 24 h.
In experiment [12] the test system is HL-60. Nature of the experiment: Cytotoxicity against human HL-60 cells assessed as cell growth inhibition measured after 72 hrs by MTT assay. The class given is functional, cell-based. Conditions: HL-60, 72 h.
Experiment [13] has as its system NCI-H1975. Nature of the experiment: Cytotoxicity against human NCI-H1975 cells assessed as cell growth inhibition measured after 72 hrs by MTT assay. The class given is functional, cell-based. The note with it: NCI-H1975, 72 h.
The test system of experiment [14] is HL-60. Nature of the experiment: Antiproliferative activity against human HL-60 cells assessed as cell growth inhibition by MTT assay. It counts as functional, cell-based.
Experiment [15] has as its system P388. Briefly: Cytotoxicity against mouse P388 cells assessed as cell growth inhibition by MTT assay. It counts as functional, cell-based.
Experiment [16] relates to MCF7. Briefly: Cytotoxicity against human MCF7 cells assessed as cell growth inhibition. It counts as functional, cell-based.
In experiment [17] the test system is SF-268. Briefly: Cytotoxicity against human SF-268 cells assessed as cell growth inhibition. The class given is functional, cell-based.
Experiment [18] has as its system NCI-H460. Briefly: Cytotoxicity against human NCI-H460 cells assessed as cell growth inhibition. The class given is functional, cell-based.
For experiment [19], the system named is NCI-H2122. Briefly: Cytotoxicity against human NCI-H2122 cells assessed as cell growth inhibition measured after 96 hrs by CellTiter-Glo assay. The class given is functional, cell-based. Conditions: NCI-H2122, 96 h.
Experiment [20] is described as follows: Cytotoxicity against human HCC366 cells assessed as cell growth inhibition measured after 96 hrs by CellTiter-Glo assay. It counts as functional, cell-based. The note with it: HCC366, 96 h.
The subject of experiment [21] is Salmonella enterica. Briefly: Antibacterial activity against Salmonella enterica ATCC 6539 assessed as bacterial cell growth inhibition measured after 24 hrs by Bactiter-glo assay. The class given is functional.
In experiment [22] the test system is A549. Briefly: Cytotoxicity against human A549 cells assessed as cell growth inhibition measured after 72 hrs by MTT assay. The note with it: A549, 72 h. The class given is functional, cell-based.
The test system of experiment [23] is Bel-7402. Nature of the experiment: Cytotoxicity against human Bel-7402 cells assessed as cell growth inhibition measured after 72 hrs by MTT assay. It counts as functional, cell-based. The note with it: Bel-7402, 72 h.
For experiment [24], the system named is Pseudopestalotiopsis theae. Nature of the experiment: Antifungal activity against Pestalotiopsis theae assessed as fungal cell growth inhibition. The class given is functional. Conditions: read-out: ED50 (the source's name).
For experiment [25], the system named is HCT-116. Nature of the experiment: Cytotoxicity against human HCT-116 cells assessed as cell growth inhibition. It counts as functional.
Experiment [26] has as its system LOX IMVI. Briefly: Cytotoxicity against human LOX IMVI cells assessed as cell growth inhibition. The class given is functional.
Experiment [27] relates to HOP-92. Briefly: Cytotoxicity against human HOP-92 cells assessed as cell growth inhibition. It counts as functional.
Experiment [28] deals with OVCAR-3. Nature of the experiment: Cytotoxicity against human OVCAR-3 cells assessed as cell growth inhibition. The class given is functional.
Experiment [29] concerns PC-3. Nature of the experiment: Cytotoxicity against human PC-3 cells assessed as cell growth inhibition. It counts as functional.
Experiment [30] is described as follows: Inhibition of influenza A virus Neuraminidase N3 incubated for 10 mins by fluorescence based analysis.
Experiment [31] relates to K562. Nature of the experiment: Cytotoxicity against human K562 cells assessed as inhibition of cell growth by MTT assay. It counts as functional, cell-based.
The subject of experiment [32] is Influenza A virus. Nature of the experiment: Antiviral activity against Influenza A virus H1N1 by CPE inhibition assay. It counts as functional, organism-based.

Sequence of Phosphotyrosine-protein phosphatase PTPB (P96830 whole entry): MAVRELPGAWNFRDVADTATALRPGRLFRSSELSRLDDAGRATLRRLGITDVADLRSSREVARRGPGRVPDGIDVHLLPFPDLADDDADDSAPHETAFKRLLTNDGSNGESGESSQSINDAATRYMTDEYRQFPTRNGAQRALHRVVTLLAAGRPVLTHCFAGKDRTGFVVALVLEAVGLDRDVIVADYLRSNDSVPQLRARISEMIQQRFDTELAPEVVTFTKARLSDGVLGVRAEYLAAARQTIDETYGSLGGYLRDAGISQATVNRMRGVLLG

Turning to `C/C=C/[C@H](O[C@H]1O[C@@H](CO)[C@H](O)[C@@H](O)[C@@H]1O)[C@H](C)/C=C(C)/C=C/C/C(C)=C/Cc1nc(OC)c(OC)c(O)c1C`, the IC50 in experiment [1] came out at 2300 nM; in experiment [2], 1300 nM; in [3] it was 5500 nM.
Consider `C=C1CC[C@H]2C(C)(C)CCC[C@]2(C)[C@H]1C[C@@]12C[C@H]3C(=O)N(C)[C@@H](C(C)C)C(=O)N3[C@@H]1Nc1ccccc12`, for which the IC50 in [4], in experiment [5], in experiment [6] and in [7] was 1000 nM throughout.
`CC(C)[C@H](O)[C@@]12NC(=O)[C@H](C)[C@@H]1OC2=O` [OMURALIDE] showed an IC50 in experiment [8] of 49 nM.
Regarding `COc1nc(C/C=C(\C)C/C(C)=C/C(C)=C/[C@@H](C)[C@@H](O)/C(C)=C/C(C)=O)cc(O)c1OC`, the IC50 in experiment [9] was 20 nM.
`CC(C)[C@@H](C)/C=C\[C@@H](C)[C@@]1(C)C[C@H]2C3=C4[C@@H](C=C5C[C@@H](O)CC[C@]5(C)[C@H]4CC[C@@]31C)[C@H](C(=O)O)[C@H]2C(=O)O`: the values for the IC50 in experiment [10] and in [11] were 30100 nM and 3600 nM, respectively.
With `C/C=C/C1=CC(=O)[C@]2(C(=O)c3c(OC)cc(OC)cc3C(=O)OC)O[C@@H]2O1`, the IC50 in [12] and in experiment [13] was 3700 nM throughout.
Regarding `C=CC(C)(C)c1[nH]c2ccccc2c1/C=C1\NC(=O)C2(CC(C)C=CC2CCc2c(O)cc(CC=C(C)C)c(O)c2C=O)NC1=O` (centres undefined), the IC50 in experiment [14] turned out to be 4800 nM; in experiment [15], 1830 nM.
As to `CC(C)[C@@H](C)/C=C/[C@@H](C)[C@H]1CC[C@H]2C3=CC(=O)N(CCO)C3=CC[C@]12C`, the IC50 was determined as 7.5 µg/mL (≈ 21 µM) in experiment [16], 7.9 µg/mL (≈ 22.1 µM) in experiment [17] and 7.8 µg/mL (≈ 21.8 µM) in experiment [18].
On to `COc1cc2nc(C(=O)NCC(=O)O)sc2c(C/C=C(\C)CC/C=C(\C)CC/C=C(\C)CCC/C(C)=C\CC(=O)O)c1O`, for which the IC50 amounted to 2500 nM in [19] and 6800 nM in [20].
Regarding `Cc1cc2c3c(c1C)C(C)(C)CCn3c(=O)c(=O)n2C[C@H](O)[C@H](O)[C@H](O)CO`, the MIC in experiment [21] was determined as 12.4 µM (≈ 4.87 µg/mL).
Take `C=CC(C)(C)c1[nH]c2c(CC=C(C)C)cc(CC=C(C)C)cc2c1C[C@@H]1NC(=O)C(=C)NC1=O`: the figures for the IC50 in experiment [22] and in [23] were 1430 nM and 4200 nM, respectively.
For `CC(=C\C(=O)O)/C=C(\C)CCCCCC[C@H]1OC(=O)[C@@H]1CO`, the EC50 in [24] came to 42.3 µg/mL (≈ 136 µM).
For `CC(C)[C@@H](C)/C=C/[C@@H](C)[C@@]1(C)C[C@H]2C3=C4[C@@H](C=C5C[C@@H](O)CC[C@]5(C)[C@H]4CC[C@@]31C)[C@H](C(=O)O)[C@H]2C(=O)O`, the IC50 amounted to 15100 nM in experiment [10] and 4500 nM in experiment [11].
Take `C[C@@]12OC(=O)[C@]1([C@@H](O)[C@@H]1C=CCCC1)NC(=O)[C@@H]2CCCl` [MARIZOMIB]: the GI50 in experiment [25] is 35 nM; in experiment [26], less than 11 nM; in experiment [27] it was less than 11 nM; in [28], less than 11 nM; in experiment [29] it was less than 11 nM.
In experiment [30], `CN1C(=O)c2cc(O)ccc2NC(=O)C12O[C@H]2c1ccccc1` (some centres undefined) returned an IC50 of 5020 nM.
`C[C@@H]1OC(=O)[C@@H](O)[C@@H](C)OC(=O)[C@H](C)[C@H]1O`: in [31], the IC50 stood at 1360 nM.
In experiment [32], `CC[C@@H](C)C1=C2NC(=O)[C@@](O)(C/C(=C\C=O)OC)C(=O)N2[C@H](C(C)C)C(=O)N1` came in with an IC50 of 50000 nM.
